Drawing on ChEMBL document CHEMBL1201862, “PubChem BioAssay data set” (2004), this text covers AC50, EC50 and IC50 for three compounds.

Assay [1] deals with T1, Microphthalmia-associated transcription factor (Homo sapiens, UniProt O75030).
T1 sequence (O75030 whole entry): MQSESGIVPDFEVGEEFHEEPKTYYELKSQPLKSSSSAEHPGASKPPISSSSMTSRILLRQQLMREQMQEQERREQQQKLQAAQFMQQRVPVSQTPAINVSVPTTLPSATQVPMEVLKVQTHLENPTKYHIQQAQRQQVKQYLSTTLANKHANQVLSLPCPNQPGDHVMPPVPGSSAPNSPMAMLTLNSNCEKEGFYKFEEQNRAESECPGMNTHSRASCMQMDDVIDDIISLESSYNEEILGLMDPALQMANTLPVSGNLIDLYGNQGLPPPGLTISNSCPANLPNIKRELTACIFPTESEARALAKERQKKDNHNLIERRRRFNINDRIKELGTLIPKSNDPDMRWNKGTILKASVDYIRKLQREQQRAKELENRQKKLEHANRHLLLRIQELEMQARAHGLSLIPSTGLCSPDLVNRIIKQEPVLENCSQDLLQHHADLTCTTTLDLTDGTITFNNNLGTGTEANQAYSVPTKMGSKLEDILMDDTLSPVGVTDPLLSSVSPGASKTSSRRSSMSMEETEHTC
Put plainly: reducers of TRPM1 reporter luminescence, concentration series – cell-based, SK-MEL-5, cherry-picked, set 3, MITF inhibitor project, dose response (AID 493073).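 Also: SK-MEL-5 melanoma cells with luciferase driven by the MITF target TRPM1 promoter.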 In kind it is functional.

Assay [2] in a line: concentration-dependent intrinsic compound fluorescence, S. cerevisiae AD/pABC3, flow cytometry, Cherry Pick1 hits, artefact control for antifungal efflux pump inhibitor project, dose response (AID 588620). In kind it is functional.
The subject of assay [3] is INS1. Put plainly: INS-1E survival protection against cytokine death – cell-based, luminescence, retest, dose response (AID 449756).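 Also: cell death triggered by IL-1 beta plus TNF-alpha plus IFN-gamma mixture; protective hits raise ATP signal compared with cytokine alone wells.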 In kind it is functional. Particulars: Rattus norvegicus.
In assay [4] the target is Protein Wnt-3a (Mus musculus, UniProt P27467). Put plainly: antagonism of Wnt3a pathway luciferase reporter – Wnt-LIGHT cells, luminescence, selectivity assay for Gli-SUFU antagonist project, dose response (AID 651570).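 Also: Wnt-LIGHT reporter cells stimulated with conditioned medium from Wnt3a-producing cells.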 The assay is classed as functional. Particulars: read-out: IC50_Mean.
Sequence of Protein Wnt-3a (P27467 whole entry): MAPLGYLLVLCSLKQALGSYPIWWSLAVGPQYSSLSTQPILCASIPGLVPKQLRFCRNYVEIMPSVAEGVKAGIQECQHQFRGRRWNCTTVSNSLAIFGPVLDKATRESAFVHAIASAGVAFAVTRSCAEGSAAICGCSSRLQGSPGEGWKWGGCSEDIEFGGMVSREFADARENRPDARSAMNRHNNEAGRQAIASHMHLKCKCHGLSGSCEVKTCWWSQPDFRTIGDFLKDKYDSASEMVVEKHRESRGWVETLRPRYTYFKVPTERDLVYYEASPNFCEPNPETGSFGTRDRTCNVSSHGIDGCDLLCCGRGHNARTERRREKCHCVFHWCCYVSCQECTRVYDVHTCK
A short description of assay [5]: viability inhibitors of stage V gametocytes – luminescence, dose response (AID 1117278).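 Also: gametocytes exposed to compound for 24 hours.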 The assay is classed as functional, cell-based.
Assay [6] in a line: viability loss in human Jurkat cells – cell-based, luminescence, cytotoxicity control for P. falciparum gametocyte viability project, dose response (AID 1117277).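 Also: potency reflects loss of cellular ATP meaning fewer viable cells.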 The assay is classed as functional.
Assay [7] concerns Candida albicans. Put plainly: Candida growth effect without fluconazole – C. albicans CaCi-2, dry powder, counter-screen for antifungal drug resistance project, dose response (AID 488802). The assay is classed as functional, organism-based. A general note: A counterscreen serves to expose hits that act by an unwanted route or on another target.
Assay [8] deals with T2, Caspase-3 (Homo sapiens, UniProt P42574).
T2 sequence (P42574 whole entry): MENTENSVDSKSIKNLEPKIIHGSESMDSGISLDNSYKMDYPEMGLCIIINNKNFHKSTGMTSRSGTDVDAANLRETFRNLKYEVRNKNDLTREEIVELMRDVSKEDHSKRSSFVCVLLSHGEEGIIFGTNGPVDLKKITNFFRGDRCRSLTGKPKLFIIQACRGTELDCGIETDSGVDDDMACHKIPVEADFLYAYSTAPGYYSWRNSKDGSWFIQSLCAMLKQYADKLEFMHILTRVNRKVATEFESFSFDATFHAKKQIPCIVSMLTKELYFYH
Put plainly: inhibition of recombinant caspase-3 activity – biochemical, luminescence, set 2, selectivity assay for SENP protease inhibitor project, SAR follow-up (AID 588599). The assay is classed as functional.

Assay [9] addresses T3, Sentrin-specific protease 8 (Homo sapiens, UniProt Q96LD8).
T3 sequence (Q96LD8 whole entry): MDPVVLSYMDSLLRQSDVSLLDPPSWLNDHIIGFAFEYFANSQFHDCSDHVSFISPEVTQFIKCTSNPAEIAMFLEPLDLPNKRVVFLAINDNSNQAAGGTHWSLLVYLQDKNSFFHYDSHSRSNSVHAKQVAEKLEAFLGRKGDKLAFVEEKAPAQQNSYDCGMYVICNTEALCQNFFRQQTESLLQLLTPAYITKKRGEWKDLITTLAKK
Nature of the assay: inhibition of sentrin protease 8 – biochemical, luminescence, set 2, SAR follow-up (AID 588601). In kind it is functional.

Assay [10] has as its target T4, Sentrin-specific protease 7 (Homo sapiens, UniProt Q9BQF6).
T4 sequence (Q9BQF6 whole entry): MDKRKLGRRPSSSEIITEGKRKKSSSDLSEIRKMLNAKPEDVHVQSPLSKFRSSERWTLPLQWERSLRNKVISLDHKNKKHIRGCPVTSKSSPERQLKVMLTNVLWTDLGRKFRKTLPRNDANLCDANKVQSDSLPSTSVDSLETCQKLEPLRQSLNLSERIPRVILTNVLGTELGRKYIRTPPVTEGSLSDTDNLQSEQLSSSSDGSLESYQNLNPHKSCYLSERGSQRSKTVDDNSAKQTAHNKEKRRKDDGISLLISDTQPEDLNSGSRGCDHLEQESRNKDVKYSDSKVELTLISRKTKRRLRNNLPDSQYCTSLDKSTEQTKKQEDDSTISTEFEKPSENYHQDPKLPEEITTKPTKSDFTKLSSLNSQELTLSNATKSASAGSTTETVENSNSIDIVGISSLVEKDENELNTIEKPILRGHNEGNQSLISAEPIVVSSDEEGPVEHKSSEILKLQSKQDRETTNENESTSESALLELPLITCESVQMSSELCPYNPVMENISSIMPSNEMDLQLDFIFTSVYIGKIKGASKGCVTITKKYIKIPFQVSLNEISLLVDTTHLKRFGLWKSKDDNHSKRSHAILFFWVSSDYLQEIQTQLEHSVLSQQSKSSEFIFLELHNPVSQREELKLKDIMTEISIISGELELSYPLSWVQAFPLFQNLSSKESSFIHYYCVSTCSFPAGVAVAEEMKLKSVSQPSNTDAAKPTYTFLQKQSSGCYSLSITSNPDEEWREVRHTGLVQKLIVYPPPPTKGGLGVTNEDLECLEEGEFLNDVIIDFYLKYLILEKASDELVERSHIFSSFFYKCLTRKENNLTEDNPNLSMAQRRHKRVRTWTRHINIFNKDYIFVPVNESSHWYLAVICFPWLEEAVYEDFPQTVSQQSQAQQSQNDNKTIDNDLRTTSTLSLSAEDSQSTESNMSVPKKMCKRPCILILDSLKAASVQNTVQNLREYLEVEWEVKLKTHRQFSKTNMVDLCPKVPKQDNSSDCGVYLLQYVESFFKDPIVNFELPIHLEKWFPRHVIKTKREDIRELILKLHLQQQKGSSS
Put plainly: inhibition of human SENP7 cleavage activity – biochemical, luminescence, set 2, SAR follow-up (AID 588600). The assay is classed as functional.

In assay [11] the target is T5, Sentrin-specific protease 6 (Homo sapiens, UniProt Q9GZR1).
T5 sequence (Q9GZR1 whole entry): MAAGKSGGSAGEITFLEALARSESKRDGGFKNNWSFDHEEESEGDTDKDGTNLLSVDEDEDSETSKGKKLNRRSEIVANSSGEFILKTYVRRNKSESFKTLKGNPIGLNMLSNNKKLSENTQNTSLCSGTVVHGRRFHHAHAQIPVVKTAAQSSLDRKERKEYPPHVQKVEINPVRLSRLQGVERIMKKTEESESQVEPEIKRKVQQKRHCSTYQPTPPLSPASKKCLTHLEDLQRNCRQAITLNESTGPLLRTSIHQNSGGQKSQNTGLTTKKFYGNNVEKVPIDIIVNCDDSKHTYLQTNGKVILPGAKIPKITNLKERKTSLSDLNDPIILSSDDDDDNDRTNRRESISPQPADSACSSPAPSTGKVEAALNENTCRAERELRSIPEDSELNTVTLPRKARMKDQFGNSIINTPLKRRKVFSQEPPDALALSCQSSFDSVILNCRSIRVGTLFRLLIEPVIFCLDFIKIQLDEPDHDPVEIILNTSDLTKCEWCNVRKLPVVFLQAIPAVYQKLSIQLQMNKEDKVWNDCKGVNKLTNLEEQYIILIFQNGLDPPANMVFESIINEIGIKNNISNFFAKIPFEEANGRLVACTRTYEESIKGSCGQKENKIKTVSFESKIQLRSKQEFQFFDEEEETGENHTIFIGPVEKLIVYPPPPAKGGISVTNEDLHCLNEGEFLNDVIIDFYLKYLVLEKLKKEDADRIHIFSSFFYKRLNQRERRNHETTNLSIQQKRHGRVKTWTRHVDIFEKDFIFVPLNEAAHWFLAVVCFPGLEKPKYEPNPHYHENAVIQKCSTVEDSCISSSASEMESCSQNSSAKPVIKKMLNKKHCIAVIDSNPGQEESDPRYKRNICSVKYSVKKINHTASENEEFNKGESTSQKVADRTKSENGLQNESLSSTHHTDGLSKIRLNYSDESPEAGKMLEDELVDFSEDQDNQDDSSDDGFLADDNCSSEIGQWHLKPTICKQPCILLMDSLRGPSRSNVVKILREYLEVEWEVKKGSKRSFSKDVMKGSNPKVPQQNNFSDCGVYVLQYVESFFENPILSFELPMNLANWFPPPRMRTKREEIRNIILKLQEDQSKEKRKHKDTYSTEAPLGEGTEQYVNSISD
Put plainly: inhibition of human SENP6 catalytic domain – biochemical, luminescence, set 2, SAR follow-up (AID 588598). In kind it is functional.

Calls of active or inactive are those of the source.

Consider `Cc1ccc(-c2c[n+](Cc3ccc(Cl)c(Cl)c3)c3n2CCC3)cc1`, for which the AC50 in [1] was 3.74 µM (active); in assay [3], 3.4 µM (active). For the same compound, the EC50 in [2] is 43.6 µM (active). For the same compound, the figures for the IC50 in [4], in assay [5] and in assay [6] were 24.5 µM (inactive), > 109 µM (inactive) and 43.6 µM (inactive), respectively.
On to `Cc1nn(S(C)(=O)=O)c2ccccc12`, for which, in [7], the AC50 was 46.7 µM (active).
Turning to `O=C(Nc1nc2ccc(SC(F)F)cc2s1)c1cn(-c2ccccc2)nc1-c1ccc(Cl)cc1`, the IC50 in [8], in assay [9], in assay [10] and in [11] was > 99 µM (inactive) each time.

Usually AC50 stands for the concentration giving half of the maximal activity seen. One may read the EC50 as the concentration giving half of the maximal effect.
